Read-outs that look alike come from different tables or passages of the source. Values belong to the compound of their own block, whether it stands above or below them.
Legend:
[1] = molecular target: T1, vanilloid receptor (Rattus norvegicus, UniProt O35433); assay: 45Ca influx test, antagonistic activity against capsaicin (Calcium Uptake Test, IC50); type: cell-based
T1 construct: DRG nerve cells from the primary culture of 2-3 days were equilibrated; endogenous in cells; host or cells: primary culture of dorsal root ganglion neurons from neonatal SD rats
T1 sequence (O35433 whole entry): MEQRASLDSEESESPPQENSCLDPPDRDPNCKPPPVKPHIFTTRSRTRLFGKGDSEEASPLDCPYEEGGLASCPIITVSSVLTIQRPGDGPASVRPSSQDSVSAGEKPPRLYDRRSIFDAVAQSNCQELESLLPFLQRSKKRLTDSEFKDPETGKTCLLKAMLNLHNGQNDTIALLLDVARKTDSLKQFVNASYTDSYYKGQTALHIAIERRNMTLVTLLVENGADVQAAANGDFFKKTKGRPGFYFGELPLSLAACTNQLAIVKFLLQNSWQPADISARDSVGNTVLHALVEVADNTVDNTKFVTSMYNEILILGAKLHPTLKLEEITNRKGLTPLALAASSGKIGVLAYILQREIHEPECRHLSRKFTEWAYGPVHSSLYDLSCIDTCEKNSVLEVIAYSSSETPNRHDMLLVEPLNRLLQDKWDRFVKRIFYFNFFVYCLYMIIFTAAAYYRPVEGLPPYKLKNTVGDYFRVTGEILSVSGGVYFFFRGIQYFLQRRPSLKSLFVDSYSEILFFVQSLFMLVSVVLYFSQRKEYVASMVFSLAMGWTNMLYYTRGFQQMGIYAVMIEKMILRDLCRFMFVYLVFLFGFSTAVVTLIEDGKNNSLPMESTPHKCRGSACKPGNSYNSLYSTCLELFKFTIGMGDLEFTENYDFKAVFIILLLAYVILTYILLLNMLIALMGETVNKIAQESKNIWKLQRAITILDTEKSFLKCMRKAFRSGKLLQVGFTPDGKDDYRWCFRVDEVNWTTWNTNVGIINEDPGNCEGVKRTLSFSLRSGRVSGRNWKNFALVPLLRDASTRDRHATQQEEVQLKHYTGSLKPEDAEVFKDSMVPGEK
Description: 1) Separation of Spinal Dorsal Root Ganglia (DRG) in Newborn Rats and Primary Culture Thereof
Neonatal(2-day old or younger than 2-day old) SD rats were put in ice for 5 minutes to anesthetize and disinfected with 70% ethanol. […] The DRG were incubated sequentially at 37° C. for 30 min in 200 U/ml collagenase and 2.5 mg/ml trypsin, separately. The ganglia were washed twice with DME/F12 medium supplemented with 10% horse serum, triturated through a fire-polished Pasteur pipette, filtered through Nitex 40 membrane to obtain single cell suspension. This was subjected to centrifugation, then re-suspended in cell culture medium at certain level of cell density. As the cell culture medium, DME/F12 medium supplemented with 10% horse serum, diluted 1:1 with identical medium conditioned by C6 glioma cells (2 days on a confluent monolayer) was used, and NGF(Nerve Growth Factor) was added to final concentration of 200 ng/ml. After the cells were grown 2 days in medium where cytosine arabinoside (Ara-C, 100 μM) was added to kill dividing nonneuronal cells, medium was changed to one without Ara-C. The resuspended cells were plated at a density of 1500-1700 neurons/well onto Terasaki plates previously coated with 10 μg/ml poly-D-ornithine.
2) ^45Ca Influx Experiments
DRG nerve cells from the primary culture of 2-3 days were equilibrated by washing 4 times with HEPES (10 mM, pH 7.4)-buffered Ca^2+, Mg^2+-free HBSS (H-HBSS). The solution in each well was removed from the individual well. Medium containing the test compound plus capsaicin (final concentration 0.5 μM) and ^45Ca (final concentration 10 μCi/ml) in H-HBSS was added to each well and incubated at room temperature for 10 min. Terasaki plates were washed six times with H-HBSS and dried in an oven. To each well, 0.3% SDS (10 μl) was added to elute ^45Ca. After the addition of […] of scintillation cocktail into each well, the amount of ^45Ca influx into neuron was measured by counting radioactivity.

[2] = test system: Male ICR mice; assay: Analgesic activity test: mouse writhing test by inducing with phenyl-p-quinone; type: in vivo; conditions: ip, 30 min before phenyl-p-quinone, read-out: Analgesic effect (% Inhibition); for inhibition in vivo at 10 mg/kg: dose 10 mg/kg intraperitoneally; for inhibition in vivo at 3 mg/kg: dose 3 mg/kg intraperitoneally
Description: (3) Analgesic Activity Test: Mouse Writhing Test by Inducing with phenyl-p-quinone
Male ICR mice (mean body weight 25 g) were maintained in a controlled lighting environment (12 h on/12 h off) for experiment. Animals received an intraperitoneal injection of 0.3 ml of the chemical irritant phenyl-p-quinone (dissolved in saline containing 5% ethanol to be a dose of 4.5 mg/kg) and 6 min later, the number of abdominal constrictions was counted in the subsequent 6 min period. Animals (10 animals/group) received 0.2 ml of test compounds solution in vehicle of ethanol/Tween 80/saline (10/10/80) intraperitoneally 30 min before the injection of phenyl-p-quinone. A reduction in the number of writhes responding to the test drug compound relative to the number responding in saline control group was considered to be indicative of an analgesic effect Analgesic effect was calculated by % inhibition equation (% inhibition=(C−T)/C×100), wherein C and T represent the number of writhes in control and compound-treated group, respectively (Table 2).

[3] = test system: Male SD rats; assay: Ulcer test: ethanol-induced anti-ulcer test; type: in vivo, rat; conditions: dose 30 mg/kg orally, 1 hour before 99% ethanol
Description: (5) Ulcer Test: Ethanol-induced Anti-ulcer Test
Male SD rats (body weight 180-200 g), 5 animals/group, were fasted for 24 hours, and their stomaches were damaged. The rats were administered with 10 ml/kg of test drug suspended in 1% methylceflulose orally and, after 1 hour, 1 ml of 99% ethanol orally. After 1 hour without food and water, the rats were sacrificed by cervical dislocation and stomaches thereof were removed. The removed stomaches were incised along the greater curvature and opened.

[4] = test system: Male ICR mice; assay: Antiinflammatory activity test: TPA-induced mouse ear edema test; type: in vivo; conditions: dose 1 mg/ear topically, ear weight 24 h after TPA
Description: (4) Antiinflammatory Activity Test: TPA(12-O-tetraecanoylphorbol 13-acetate)-induced mouse ear edema test
Male ICR mice(body weight 25-30 g), 10 animals/group, were treated topically on the right ear with 30 μl of TPA (2.5 μg) solution in acetone and after 15 min, 30 μl of acetone or test compound solution in acetone was applied topically. After six hours, an identical treatment was applied again. After twenty four hours following the treatment of TPA, the animals were sacrificed and ear tissue was dissected using 6 mm-diameter punch. Ear tissue dissected were weighed to the nearest 0.1 mg on an electrobalance. The increased weight of the tissue compared to control group was considered as an index of inflammation. The percent inhibition is defined by the following equation:
% inhibition=(C−T)/C×100, wherein C and T represent an increase of ear weight in TPA-treated and TPA+drug-treated group, respectively (Table 3).

[5] = Table 1a, neonatal SD rat DRG neurons, inhibition of response to capsaicin 0.5 μM

SMILES: Cn1cccc1CCNC(=S)NCc1ccc(C(C)(C)C)cc1 [Example 5, 1-(4-t-butylbenzyl)-3-[2-(1-methyl-1H-pyrrol-2-yl)ethyl]thiourea]
inhibition in vivo at 10 mg/kg [2]: 53%
IC50 [1]: 1100 nM

SMILES: CC(C)(C)c1ccc(CNC(=S)NCc2ccc(NS(C)(=O)=O)c(F)c2)cc1 [Example 13, 1-(4-t-butylbenzyl)-3-(3-fluoro-4-methanesulfonylaminobenzyl)thiourea]
Anti-ulcerous effect (% inhibition) [3]: 30%
Anti-inflammtory effect (% Inhibition) [4]: 74%
inhibition in vivo at 10 mg/kg [2]: 82%
IC50 [1, 5]: 37 nM

SMILES: CS(=O)(=O)Nc1ccc(CNC(=S)NCCc2ccccc2)cc1F [Example 15, 1-phenethyl-3-(3-fluoro-4-methanesulfonylaminobenzyl)thiourea]
IC50 [1]: 1200 nM

SMILES: CC(C)(C)c1ccc(CNC(=S)NCc2ccc(NS(C)(=O)=O)c(Cl)c2)cc1 [Example 17]
Anti-ulcerous effect (% inhibition) [3]: 58%
Anti-inflammtory effect (% Inhibition) [4]: 80%
inhibition in vivo at 10 mg/kg [2]: 98%
IC50 [1, 5]: 8.4 nM

SMILES: COC(=O)c1cc(CNC(=S)NCc2ccc(C(C)(C)C)cc2)ccc1NS(C)(=O)=O [Example 18]
IC50 [1, 5]: 720 nM

SMILES: COC(=O)c1cccc(CNC(=S)NCc2ccc(C(C)(C)C)cc2)c1 [Example 30]
IC50 [1]: 1500 nM

SMILES: CC(C)(C)c1ccc(CNC(=S)NCCc2ccc(NS(C)(=O)=O)cc2)cc1 [Example 36, 1-(4-t-butylbenzyl)-3-(4-methanesulfonylaminophenethyl)thiourea]
IC50 [1]: 1100 nM

SMILES: CC(C)(C)c1ccc(CNC(=S)NCc2ccc(NS(C)(=O)=O)cc2)cc1 [Example 44]
Anti-ulcerous effect (% inhibition) [3]: 36%
Anti-inflammtory effect (% Inhibition) [4]: 83%
inhibition in vivo at 3 mg/kg [2]: 92%

SMILES: CC(C)(C)c1ccc(CNC(=S)NCc2c(F)ccc(NS(C)(=O)=O)c2F)cc1 [Example 51, 1-(4-t-butylbenzyl)-3-(2,6-difluoro-3-methanesulfonylaminobenzyl)thiourea]
IC50 [1]: 700 nM

SMILES: CC(C)(C)c1ccc(CNC(=S)NCc2cccc(NS(C)(=O)=O)c2)cc1 [Example 52, 1-(4-t-butylbenzyl)-3-(3-methanesulfonylaminobenzyl)thiourea]
inhibition in vivo at 10 mg/kg [2]: 94%

SMILES: CC(=O)OCc1cc(C(C)(C)C)ccc1CNC(=S)Nc1ccc(NS(C)(=O)=O)cc1 [Example 70, 1-(2-acetoxymethyl-4-t-butylbenzyl)-3-(4-methanesulfonylaminobenzene)thiourea]
IC50 ([1]; Table 1b, neonatal SD rat DRG neurons, inhibition of response to capsaicin 0.5 μM): 580 nM

SMILES: Cc1ncsc1CCNC(=S)NCc1ccc(C(C)(C)C)cc1 [Example 73, 1-(4-t-butylbenzyl)-3-[2-(4-methylthiazol-5-yl)ethyl]thiourea]
Anti-ulcerous effect (% inhibition) [3]: 22%
Anti-inflammtory effect (% Inhibition) [4]: 77%
inhibition in vivo at 10 mg/kg [2]: 88%
IC50 [1]: 1200 nM

SMILES: CC(C)(C)c1ccc(CNC(=S)NCCc2ccccn2)cc1 [Example 83]
inhibition in vivo at 10 mg/kg [2]: 85%
IC50 [1]: 1100 nM

SMILES: CC(C)(C)c1ccc(CNC(=S)NCCc2cccc(F)c2)cc1 [Example 96]
inhibition in vivo at 10 mg/kg [2]: 58%
IC50 [1]: 590 nM

SMILES: Cn1cc(NS(C)(=O)=O)cc1CNC(=S)NCc1ccc(C(C)(C)C)cc1 [Example 134]
IC50 [1]: 810 nM

SMILES: COc1cc(CCCN(Cc2ccccc2)/C(S)=N/CCc2ccccc2)ccc1O [Example 152]
IC50 [1]: 950 nM

SMILES: COc1ccc2c(c1)c(CC(=O)O)c(C)n2C(=O)c1ccc(Cl)cc1 [Indomethacin, indomethacin, reference compound]
Anti-inflammtory effect (% Inhibition) [4]: 74%
inhibition in vivo at 3 mg/kg [2]: 94%

SMILES: CNC(=C[N+](=O)[O-])NCCSCc1ccc(CN(C)C)o1 [Ranitidine, ranitidine, reference compound]
Anti-ulcerous effect (% inhibition) [3]: 4%

Continued, in another order:

IC50 [1]: 590 nM
SMILES: Oc1cc2c(cc1O)CN(C(=S)NCCc1ccc(Cl)cc1)CCC2 [Capsazepine, capsazepine, reference compound]

IC50 [1]: 230 nM
SMILES: CC(C)(C)c1ccc(CNC(=S)NCc2cc(F)c(N)cc2F)cc1 [Example 9, 1-(4-amino-2,5-difluorobenzyl)-3-(4-t-butylbenzyl)thiourea]

IC50 [1]: 5.8 nM
SMILES: CC(C)(C)c1ccc(CNC(=S)NCc2ccc(NS(C)(=O)=O)c(C(=O)O)c2)cc1 [Example 19, 1-(4-t-butylbenzyl)-3-(3-carboxyl-4-methanesulfonylaminobenzyl)thiourea]

IC50 [1]: 31 nM
SMILES: CC(C)(C)c1ccc(CNC(=S)NCc2c(F)c(F)c(NS(C)(=O)=O)c(F)c2F)cc1 [Example 32, 1-(4-t-butylbenzyl)-3-(2,3,5,6-tetrafluoro-4-methanesulfonylaminobenzyl)thiourea]

IC50 [1]: 110 nM
SMILES: CC(C)(C)c1ccc(CNC(=S)NCc2cc(F)c(NS(C)(=O)=O)cc2F)cc1 [Example 33, 1-(4-t-butylbenzyl)-3-(2,5-difluoro-4-methanesulfonylaminobenzyl)thiourea]
Anti-ulcerous effect (% inhibition) [3]: 31%
Anti-inflammtory effect (% Inhibition) [4]: 66%

IC50 [1]: 420 nM
SMILES: CC(C)(C)c1ccc(CNC(=S)NCc2cc(F)ccc2F)cc1 [Example 90]

IC50 [1]: 460 nM
SMILES: COc1cc(CCCN(C(=S)NCCc2ccccc2)C(c2ccccc2)c2ccccc2)ccc1O [Example 161]
inhibition in vivo at 1 mg/kg ([2]; dose 1 mg/kg intraperitoneally): 73%

IC50 [1]: 110 nM
SMILES: CC(C)(C)c1ccc(CNC(=NC#N)NCc2ccc(NS(C)(=O)=O)cc2)cc1 [Example 178]

IC50 [1]: 210 nM
SMILES: CC(C)(C)c1ccc(CCC(=O)NCc2ccc(NS(C)(=O)=O)c(F)c2)cc1 [Example 193, N-(3-fluoro-4-methanesulfonylaminobenzyl) 3-(4-t-butylphenyl)propionamide]

IC50 [1]: 310 nM
SMILES: CNS(=O)(=O)Nc1ccc(C/N=C(\S)NCc2ccc(C(C)(C)C)cc2)cc1 [Example 194, 1-(4-t-butylbenzyl)-3-(4-methylaminosulfonylaminobenzyl)thiourea]

IC50 [1]: 150 nM
SMILES: CC(C)(C)c1ccc(CNC(=S)NCc2ccc(NS(N)(=O)=O)cc2)cc1 [Example 196, 1-(4-t-butylbenzyl)-3-(4-aminosulfonylaminobenzyl)thiourea]

Source: patent US8071650B2, “Thiourea derivatives and the pharmaceutical compositions containing the same” (Pacific Corporation, priority 2000, dated 2011)
